The experiment relates to intestinal fat absorption. The experiment in a line: Intestinal fat absorption reduction determination (gravimetric fecal fat content) in dogs. It is filed as in vivo. Conditions: male beagles, oral gavage, dosing solution 0.5 mg/mL, 1 mL per kg body weight, single daily dose on Days 0 and 5-12; fecal fat determined gravimetrically. From the text: Healthy, young adult (1-2 years of age) male beagles (Marshall Farms, North Rose, New York, NY 14516) weighing 11.45 - 12.45 kg at the start of the treatment period were employed as test subjects. The animals were housed individually in standard caging meeting or exceeding the USDA regulations (U.S. Department of Agriculture, Animal Welfare, Final Rules. 9 C.F.R. Parts 1-3, 1995).
The test compound was provided as a water-soluble powder. The dosing solution, administered by oral gavage, was provided employing a 0.025 M citrate buffer (approx. pH = 3) prepared using anyhdrous citric acid (0.4 g/mL) and anhydrous sodium citrate (0.1 g/mL) as the test vehicle. The dosing solution was prepared at 0.5 mg/mL activity so that 1 mL was delivered per kg body weight. Following a fourteen day acclimation period (designated as Days -14 to -1), during which time the test animals were evaluated for certain criteria including determination of body weight, physical examinations, and initial fecal specimen collection, a sixteen day evaluation study was effected. […]
Fecal specimens were collected daily over approximately 24 hours (±1 hr) prestudy and then beginning on Day -2 and terminating on Day 16. The fecal specimens so collected were weighed (total grams of bulk feces) frozen, stored at -26°C to -20°C and then analyzed for fecal fat content. […]

Consider `CCCCN1CCc2cc(NC(=O)c3ccccc3-c3ccc(C(F)(F)F)cc3)ccc2C1` [4'-trifluoromethyl-biphenyl-2-carboxylic acid-(2-butyl-1,2,3,4-tetrahydroisoquinolin-6-yl)-amide], for which the “reduced intestinal fat absorption in dogs” value was 26%. `CC(=O)NCCN1CCc2cc(NC(=O)c3ccccc3-c3ccc(C(F)(F)F)cc3)ccc2C1` [4'-trifluoromethyl-biphenyl-2-carboxylic acid-[2-(2-acetylaminoethyl)-1,2,3,4-tetrahydroisoquinolin-6-yl amide]: the “reduced intestinal fat absorption in dogs” value was 49%.

The values are drawn from patent EP1099439A2, “Use of apo B secretion/MTP inhibitors” (Pfizer Products Inc., priority 1999, dated 2001).
